Assay results: patent EP3427727A1, “COMBINATION OF BIOLOGICALLY ACTIVE SUBSTANCES FOR STABILIZING OR INCREASING THE COLLAGEN CONTENT” (BioActive Food GmbH, priority 2017, dated 2019)

Test system: Kollagen-Synthese
Assay: Cellular test of collagen synthesis (method of Suh et al.; Biocolor collagen assay, detects collagen types I-IV)
Assay type: cell-based
From the text: In einem zellulären Test wurde die Wirkung von Vitamin K1 und Lutein auf die Kollagen-Synthese untersucht. Die Untersuchung erfolgte nach dem in Suh et al. (Biol Pharm Bull. 2009 Apr; 32(4):746-9) beschriebenen Verfahren. Das gebildete Kollagen wurde mit Hilfe eines Standardassays (Firma Biocolor Ltd., Carrickfergus, Großbritannien) bestimmt. Der Assay war in der Lage, Kollagen des Typs I-IV zu erfassen.

Compound | activity at 2 µM (Lutein 2 µM, Kontrolle = 100 %, read-out: Kollagen (relativ)) [%] | activation at 2 µM (Lutein 2 µM, increase over control, read-out: Erhöhung (Kollagen)) [%] | activity at 0.5 µM (Vitamin K 0,5 µM, Kontrolle = 100 %, read-out: Kollagen (relativ)) [%] | activation at 0.5 µM (Vitamin K 0,5 µM, increase over control, read-out: Erhöhung (Kollagen)) [%]
CC1=C[C@H](O)CC(C)(C)[C@H]1/C=C/C(C)=C/C=C/C(C)=C/C=C/C=C(C)/C=C/C=C(C)/C=C/C1=C(C)C[C@@H](O)CC1(C)C [Lutein, (3R,6'R)-β-ε-Carotin-3,3'-diol] | 105 | 5 | – | –
CC1=C(C/C=C(\C)CCC[C@H](C)CCC[C@H](C)CCCC(C)C)C(=O)c2ccccc2C1=O [Vitamin K, Vitamin K1] | – | – | 116 | 16
